According to patent US8067445B2, “N,N-disubstituted aminoalkylbiphenyl antagonists of prostaglandin D2 receptors” (Panmira Pharmaceuticals, LLC, priority 2008, dated 2011):
pIC50: −log10 of the molar value.

Columns and labels:
[1] = target: T1, human DP1 receptor (Homo sapiens, UniProt Q13258); assay: DP1 radioligand binding assay ([3H]BWA868C, platelet membranes); conditions: [3H]BWA868C binding, human platelet membranes; read-out: hDP1
T1 construct: tissue Biological Specialty Corporation; host or cells: human platelet membranes
T1 sequence (Q13258 1-359): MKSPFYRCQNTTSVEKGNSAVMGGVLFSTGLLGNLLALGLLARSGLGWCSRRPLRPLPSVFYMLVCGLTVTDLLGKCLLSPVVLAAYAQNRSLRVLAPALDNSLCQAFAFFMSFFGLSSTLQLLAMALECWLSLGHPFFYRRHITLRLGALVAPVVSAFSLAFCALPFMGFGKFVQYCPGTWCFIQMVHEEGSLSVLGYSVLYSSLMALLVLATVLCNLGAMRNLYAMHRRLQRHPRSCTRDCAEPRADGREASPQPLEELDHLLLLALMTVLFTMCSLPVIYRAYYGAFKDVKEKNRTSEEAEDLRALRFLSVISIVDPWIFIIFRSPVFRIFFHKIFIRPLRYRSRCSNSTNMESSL
In short: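 Human platelet membranes (20 μg protein/well) incubated 60 min at room temperature with 2 nM [3H]BWA868C and compound in 50 mM Hepes, 10 mM MnCl2, 1 mM EDTA, pH 7.4, ± 0.2% human serum albumin. Bound radioactivity measured after filtration; nonspecific binding defined with 10 μM BWA868C; IC50 from titration curves.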

[2] = target: T2, human DP2 receptor (Homo sapiens, UniProt Q9Y5Y4); assay: DP2/CRTH2 radioligand binding assay ([3H]PGD2); conditions: [3H]PGD2 binding, membranes of HEK293 cells expressing human DP2; read-out: hDP2
T2 construct: expressed in transfected cells
T2 sequence (Q9Y5Y4 1-395): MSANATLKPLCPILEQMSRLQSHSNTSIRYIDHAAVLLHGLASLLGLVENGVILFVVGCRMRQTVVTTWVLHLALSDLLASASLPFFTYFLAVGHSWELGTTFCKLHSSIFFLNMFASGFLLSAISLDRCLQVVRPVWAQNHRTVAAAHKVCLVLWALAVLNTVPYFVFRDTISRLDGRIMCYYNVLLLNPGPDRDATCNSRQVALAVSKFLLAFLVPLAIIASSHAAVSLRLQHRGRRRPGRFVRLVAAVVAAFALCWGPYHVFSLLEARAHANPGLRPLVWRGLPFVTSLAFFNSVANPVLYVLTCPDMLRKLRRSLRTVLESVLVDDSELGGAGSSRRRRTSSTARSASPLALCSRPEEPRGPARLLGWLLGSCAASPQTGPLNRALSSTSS
In short: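 Membranes from HEK293 cells stably expressing recombinant human DP2 incubated 60 min at room temperature with 1 nM [3H]PGD2 and compound in pH 7.4 Hepes/MnCl2/EDTA buffer, ± 0.2% human serum albumin. Bound radioactivity measured after filtration; non-specific binding defined with 10 μM PGD2. IC50 from titration curves.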

`CCN(Cc1cc(C(F)(F)F)ccc1-c1cc(CC(=O)O)ccc1OC)C(=O)Cn1cccn1` [Compound 1-148, (2′-{[Ethyl-(2-pyrazol-1-yl-acetyl)-amino]-methyl}-6-methoxy-4′-trifluoromethyl-biphenyl-3-yl)-acetic acid] was tested, and the pIC50 [1] was 4.52 to 6.00 and the pIC50 [2] was greater than 6.52.
For `CCN(Cc1cc(C(F)(F)F)ccc1-c1cc(CC(=O)O)ccc1OC)C(=O)CN1CCCC1` [Compound 1-151, (2′-{[Ethyl-(2-pyrrolidin-1-yl-acetyl)-amino]-methyl}-6-methoxy-4′-trifluoromethyl-biphenyl-3-yl)-acetic acid], the pIC50 [1] was 4.52 to 6.00 and the pIC50 [2] was 4.52 to 6.00.
`CCN(Cc1cc(C(F)(F)F)ccc1-c1cc(C(C)(C)C(=O)O)ccc1OC)C(=O)OCc1ccccc1` [Compound 1-116, 2-{2′-[(Benzyloxycarbonyl-ethyl-amino)-methyl]-6-methoxy-4′-trifluoromethyl-biphenyl-3-yl}-2-methyl-propionic acid] showed a pIC50 [1] of 4.52 to 6.00 and a pIC50 [2] of 6.00 to 6.52.
`COc1ccc(CC(=O)O)cc1-c1ccc(C(F)(F)F)cc1CN(C(C)=O)[C@@H]1c2ccccc2C[C@@H]1OC` [Compound 1-16, (2′-{[Acetyl-((1R,2S)-2-methoxy-indan-1-yl)-amino]-methyl}-6-methoxy-4′-trifluoromethyl-biphenyl-3-yl)-acetic acid] gave a pIC50 [1] of 4.52 to 6.00 and a pIC50 [2] of 4.52 to 6.00.
Work on `CCN(Cc1cc(C(F)(F)F)ccc1-c1cc(CC(=O)O)ccc1OC)C(=O)NCc1ccccn1` [Compound 1-139, [2′-(1-Ethyl-3-pyridin-2-ylmethyl-ureidomethyl)-6-methoxy-4′-trifluoromethyl-biphenyl-3-yl]-acetic acid] yielded a pIC50 [1] of 4.52 to 6.00 and a pIC50 [2] greater than 6.52.
For `CCN(Cc1cc(C(F)(F)F)ccc1-c1cc(F)cc(CC(=O)O)c1)C(=O)NCc1ccccc1` [Compound 1-159, [2′-(3-Benzyl-1-ethyl-ureidomethyl)-5-fluoro-4′-trifluoromethyl-biphenyl-3-yl]-acetic acid], the pIC50 [1] was 4.52 to 6.00 and the pIC50 [2] was greater than 6.52.
In the case of `CCN(Cc1cc(C(F)(F)F)ccc1-c1cc(Cl)cc(CC(=O)O)c1)C(C)=O` [Compound 1-137, {2′-[(Acetyl-ethyl-amino)-methyl]-5-chloro-4′-trifluoromethyl-biphenyl-3-yl}-acetic acid], the pIC50 [1] was 4.52 to 6.00 and the pIC50 [2] was greater than 6.52.
`CCN(Cc1cc(C(F)(F)F)ccc1-c1cc(CC#N)ccc1OC)C(=O)OCc1ccccc1` [Compound 2-4, (5′-Cyanomethyl-2′-methoxy-4-trifluoromethyl-biphenyl-2-ylmethyl)-ethyl-carbamic acid benzyl ester] was tested, and the pIC50 [1] was 4.52 to 6.00 and the pIC50 [2] was less than 4.52.
In the case of `CCN(Cc1cc(C(F)(F)F)ccc1-c1cc(Cl)cc(CC(=O)O)c1)C(=O)C1CC1` [Compound 1-135, {5-Chloro-2′-[(cyclopropanecarbonyl-ethyl-amino)-methyl]-4′-trifluoromethyl-biphenyl-3-yl}-acetic acid], the pIC50 [1] was 4.52 to 6.00 and the pIC50 [2] was greater than 6.52.
`CCN(Cc1cc(C(F)(F)F)ccc1-c1cc(CC(N)=O)ccc1OC)C(=O)OCc1ccccc1` [Compound 2-6, (5′-Carbamoylmethyl-2′-methoxy-4-trifluoromethyl-biphenyl-2-ylmethyl)-ethyl-carbamic acid benzyl ester] gave a pIC50 [1] of 4.52 to 6.00 and a pIC50 [2] of 4.52 to 6.00.
Work on `COc1ccc(CC(=O)O)cc1-c1ccc(C(=O)O)cc1CN(CC(F)(F)F)C(C)=O` [Compound 1-37, 2-{[Acetyl-(2,2,2-trifluoro-ethyl)-amino]-methyl}-5′-carboxymethyl-2′-methoxy-biphenyl-4-carboxylic acid] yielded a pIC50 [1] of 4.52 to 6.00 and a pIC50 [2] of 4.52 to 6.00.
`CCN(Cc1ccc(C(F)(F)F)cc1-c1cc(CC(=O)O)ccc1OC)C(=O)NCc1ccccc1` [Compound 1-172, [2′-(3-Benzyl-1-ethyl-ureidomethyl)-6-methoxy-5′-trifluoromethyl-biphenyl-3-yl]-acetic acid] gave a pIC50 [1] of 4.52 to 6.00 and a pIC50 [2] greater than 6.52.
With `O=C(O)Cc1ccc(F)c(-c2ccc(C(F)(F)F)cc2CN(CC(F)(F)F)C(=O)OCc2ccccc2)c1` [Compound 1-49, (2′-{[Benzyloxycarbonyl-(2,2,2-trifluoro-ethyl)-amino]-methyl}-6-fluoro-4′-trifluoromethyl-biphenyl-3-yl)-acetic acid] the pIC50 [1] was 4.52 to 6.00 and the pIC50 [2] was 4.52 to 6.00.
In the case of `COc1ccc(CC(=O)O)cc1-c1ccc(C(F)(F)F)cc1CN(C(C)=O)[C@@H](C)[C@H](O)c1ccccc1` [Compound 1-104, (2′-{[Acetyl-((1S,2R)-2-hydroxy-1-methyl-2-phenyl-ethyl)-amino]-methyl}-6-methoxy-4′-trifluoromethyl-biphenyl-3-yl)-acetic acid], the pIC50 [1] was 4.52 to 6.00 and the pIC50 [2] was 4.52 to 6.00.
For `CCN(Cc1ccc(C(F)(F)F)cc1-c1cc(CC(=O)O)ccc1OC)C(=O)OCc1ccc(F)cc1` [Compound 1-168, (2′-{[Ethyl-(4-fluoro-benzyloxycarbonyl)-amino]-methyl}-6-methoxy-5′-trifluoromethyl-biphenyl-3-yl)-acetic acid], the pIC50 [1] was 6.00 to 6.52 and the pIC50 [2] was greater than 6.52.
`CCN(Cc1cc(C(F)(F)F)ccc1-c1cc(Cl)cc(CC(=O)O)c1)C(=O)NCc1ccccc1` [Compound 1-157, [2′-(3-Benzyl-1-ethyl-ureidomethyl)-5-chloro-4′-trifluoromethyl-biphenyl-3-yl]-acetic acid] showed a pIC50 [1] of 4.52 to 6.00 and a pIC50 [2] greater than 6.52.
Compound `CCN(Cc1cc(C(F)(F)F)ccc1-c1cc(CC#N)ccc1OC)C(=O)C1CC1` [Compound 2-3, Cyclopropanecarboxylic acid (5′-cyanomethyl-2′-methoxy-4-trifluoromethyl-biphenyl-2-ylmethyl)-ethyl-amide] has a pIC50 [1] of 4.52 to 6.00 and a pIC50 [2] of less than 4.52.
Work on `COc1ccc(CC(=O)O)cc1-c1ccc(C(F)(F)F)cc1CN(C(C)=O)[C@@H]1c2ccccc2C[C@@H]1O` [Compound 1-15, (2′-{[Acetyl-((1R,2S)-2-hydroxy-indan-1-yl)-amino]-methyl}-6-methoxy-4′-trifluoromethyl-biphenyl-3-yl)-acetic acid] yielded a pIC50 [1] of 4.52 to 6.00 and a pIC50 [2] of 4.52 to 6.00.
In the case of `CCN(Cc1cc(C(F)(F)F)ccc1-c1cc(CC(=O)O)cc(C(F)(F)F)c1)C(=O)OC` [Compound 1-163, {2′-[(Ethyl-methoxycarbonyl-amino)-methyl]-5,4′-bis-trifluoromethyl-biphenyl-3-yl}-acetic acid], the pIC50 [1] was 4.52 to 6.00 and the pIC50 [2] was greater than 6.52.
In the case of `CCN(Cc1cc(C(F)(F)F)ccc1-c1cc(CC(=O)O)ccc1OC)C(=O)NC1CC1` [Compound 1-182], the pIC50 [1] was 4.52 to 6.00 and the pIC50 [2] was greater than 6.52.
`CCN(Cc1ccc(C(F)(F)F)cc1-c1cc(CC(=O)O)ccc1OC)C(=O)C1CC1` [Compound 1-170, {2′-[(Cyclopropanecarbonyl-ethyl-amino)-methyl]-6-methoxy-5′-trifluoromethyl-biphenyl-3-yl}-acetic acid] gave a pIC50 [1] of 4.52 to 6.00 and a pIC50 [2] greater than 6.52.
`CCN(Cc1cc(C(F)(F)F)ccc1-c1cc(CC(=O)O)ccc1OC)C(=O)Cn1ccnc1C` [Compound 1-149, [2′-({Ethyl-[2-(2-methyl-imidazol-1-yl)-acetyl]-amino}-methyl)-6-methoxy-4′-trifluoromethyl-biphenyl-3-yl]-acetic acid] showed a pIC50 [1] of 4.52 to 6.00 and a pIC50 [2] greater than 6.52.
`CCN(Cc1cc(C(F)(F)F)ccc1-c1ccc(C(F)(F)F)c(CC(=O)O)c1)C(=O)OCc1ccccc1` [Compound 1-124, {2′-[(Benzyloxycarbonyl-ethyl-amino)-methyl]-4,4′-bis-trifluoromethyl-biphenyl-3-yl}-acetic acid] was tested, and the pIC50 [1] was 6.00 to 6.52 and the pIC50 [2] was 6.00 to 6.52.
`CCN(Cc1ccc(C)cc1-c1cc(CC(=O)O)ccc1OC)C(=O)C1CC1` [Compound 1-171, {2′-[(Cyclopropanecarbonyl-ethyl-amino)-methyl]-6-methoxy-5′-methyl-biphenyl-3-yl}-acetic acid] gave a pIC50 [1] of 4.52 to 6.00 and a pIC50 [2] greater than 6.52.
